In PMC9964680, “Novel TDP1 Inhibitors: Disubstituted Thiazolidine-2,4-Diones Containing Monoterpene Moieties” (International Journal of Molecular Sciences, 2023):

What was measured:
Human recombinant TDP1 = target: T1, Human recombinant TDP1 (Homo sapiens, UniProt Q9NUW8); assay: Real-time oligonucleotide biosensor assay of TDP1 activity; assay type: biochemical; settings: 1.5 nM TDP1, 50 nM biosensor, 26 °C, at least three experiments; read-out: TDP1 inhibitory activity IC50
T1 construct: made in house
Procedure: The inhibiting activity of the compounds against TDP1 was investigated using a real-time oligonucleotide biosensor assay.
The biosensor (5′-[FAM] AAC GTC AGGGTC TTC C [BHQ]-3′) was synthesized in the Laboratory of Nucleic Acid Chemistry at the Institute of Chemical Biology and Fundamental Medicine (Novosibirsk, Russia) and was used for TDP1 enzyme activity real-time fluorescence detection. The reaction mixture (200 µL) contained a TDP1 reaction buffer (50 mM Tris-HCl, pH 8.0, 50 mM NaCl, and 7 mM β-mercaptoethanol), 50 nM oligonucleotide, varied concentrations of the tested compounds, and purified TDP1 in a final concentration of 1.5 nM. The recombinant TDP1 was purified to homogeneity by chromatography on Ni-chelating resin and phosphocellulose P11, as described, using plasmid pET 16B-TDP1, kindly provided by Dr. K.W. Caldecott (University of Sussex, United Kingdom).
The reaction mixtures were incubated at a constant temperature of 26 °C in a POLARstar OPTIMA fluorimeter (BMG LABTECH, GmbH, Ortenberg, Germany). Fluorescence intensity was measured (Ex485/Em520 nm) every 1 min for 10 min. The average values of the half maximal inhibitory concentration (IC50) were determined using a six-point concentration response curve and calculated using MARS Data Analysis 2.0 (BMG LABTECH). The 50% inhibitory concentration (IC50) was defined as the concentration of the compound that inhibited 50% of the enzyme activity, when compared to the untreated controls. At least three independent experiments were carried out to obtain the IC50 values.

MRC-5 cells = assay: Effect of compounds on topotecan cytotoxicity, MRC-5 (EZ4U); assay type: cell-based, human; settings: MRC-5, 10 μM compound, topotecan 1 to 10 μM
Procedure: According the EZ4U test data the thiazolidine-2,4-diones were shown not to enhance the cytotoxic effect of topotecan at 10 μM (Figure 2C,D). […] It can be speculated that the decisive factor is the use of the thiazolidine-2,4-dione fragment as a central molecular scaffold, which is a pharmacophore for many targets. In particular, thiazolidine-2,4-diones are well-known for their antidiabetic, antitumor [20], and anti-inflammatory activities. Such promiscuity can lead to binding to a number of proteins/enzymes in cells other than TDP1.
Human colon adenocarcinoma HCT-116 and human lung fibroblast MRC-5 cell lines were provided by the Cell Culture Bank of the State Research Center for Virology and Biotechnology Vector, Novosibirsk, Russia. Cells were cultured in DMEM medium (Invitrogen) supplemented with 10% fetal bovine serum (FBS) (Invitrogen), penicillin (100 units/mL), and streptomycin (100 µg/mL) at 37 °C and 5% CO2 in a humid atmosphere. After the formation of a 30–50% monolayer, the tested compounds were added to the medium. Because the compounds are soluble in DMSO, we minimized the DMSO content in the culture medium. The volume of the added reagents was 1/100 of the total volume of the culture medium, and the amount of DMSO was 1% of the final volume. Control cells were grown in the presence of 1% DMSO. […]

T1 sequence (Q9NUW8 whole entry): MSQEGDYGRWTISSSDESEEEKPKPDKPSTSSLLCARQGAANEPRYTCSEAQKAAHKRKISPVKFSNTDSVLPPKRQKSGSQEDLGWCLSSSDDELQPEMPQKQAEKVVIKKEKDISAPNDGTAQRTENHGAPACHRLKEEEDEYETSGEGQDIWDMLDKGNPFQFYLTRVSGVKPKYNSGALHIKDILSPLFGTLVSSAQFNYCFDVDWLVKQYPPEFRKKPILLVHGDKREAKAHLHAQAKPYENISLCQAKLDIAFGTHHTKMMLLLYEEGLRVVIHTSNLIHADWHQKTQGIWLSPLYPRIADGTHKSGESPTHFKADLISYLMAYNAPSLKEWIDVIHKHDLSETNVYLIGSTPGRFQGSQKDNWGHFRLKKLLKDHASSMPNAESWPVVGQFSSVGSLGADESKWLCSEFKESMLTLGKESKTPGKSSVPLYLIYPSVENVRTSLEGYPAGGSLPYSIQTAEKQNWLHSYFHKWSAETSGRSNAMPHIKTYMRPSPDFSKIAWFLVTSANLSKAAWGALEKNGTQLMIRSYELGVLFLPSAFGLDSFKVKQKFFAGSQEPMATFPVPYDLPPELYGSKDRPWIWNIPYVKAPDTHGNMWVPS

In the case of `CC1(C)[C@H]2CC=C(CCN3C(=O)S/C(=C\c4ccc(Br)s4)C3=O)[C@@H]1C2` [Compound 21b, (Z)-5-((5-bromothiophen-2-yl)methylene)-3-(2-((1R,5S)-6,6-dimethylbicyclo[3.1.1]hept-2-en-2-yl)ethyl)thiazolidine-2,4-dione], the IC50 (Human recombinant TDP1) is reported as 2.5 ± 0.4 µM and the “effect on the cytotoxic effect of topotecan” value (MRC-5 cells) is reported as “protects MRC-5 cells”.
